Data published in patent US7741327B2 (Hoffmann-La Roche Inc., priority 2008, dated 2010).

How the values were obtained:
[1] = target: T1, Recombinant human liver GK1 (GST-GK) (Homo sapiens, UniProt P35557); assay: In vitro glucokinase activity (G6PDH-coupled NADH assay); assay type: biochemical; details: 30° C., 5 mM D-glucose, 10% DMSO
T1 construct: made in house; host or cells: E. coli
T1 sequence (P35557 1-466 isoform P35557-2): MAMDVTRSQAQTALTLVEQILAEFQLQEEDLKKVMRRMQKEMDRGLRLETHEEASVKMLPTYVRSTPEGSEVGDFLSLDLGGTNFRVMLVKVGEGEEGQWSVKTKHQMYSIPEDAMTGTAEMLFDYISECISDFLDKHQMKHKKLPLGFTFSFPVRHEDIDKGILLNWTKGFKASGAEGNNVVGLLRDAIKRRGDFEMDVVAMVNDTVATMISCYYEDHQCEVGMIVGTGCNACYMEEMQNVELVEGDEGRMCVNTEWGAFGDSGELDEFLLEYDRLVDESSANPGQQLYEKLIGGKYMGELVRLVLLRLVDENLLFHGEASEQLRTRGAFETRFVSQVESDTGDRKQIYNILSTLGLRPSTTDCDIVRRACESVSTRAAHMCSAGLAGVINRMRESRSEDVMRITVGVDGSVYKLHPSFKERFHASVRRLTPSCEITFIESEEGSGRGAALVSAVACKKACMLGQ
Outline: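 GST-tagged human liver GK1 from E. coli, assayed at 30° C in 25 mM Hepes pH 7.1 with 5 mM D-glucose, 1 mM ATP, 1.8 mM NAD and G6PDH coupling, 10% DMSO final; reaction started with enzyme after 10 min preincubation. NADH formation followed at OD340; SC1.5 is activator concentration giving 50% increase over DMSO control rate.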

C57B6 mice = assay: Glucokinase activator in vivo screen: blood glucose lowering in mice after oral dosing; details: Mus musculus, vs control, read-out: % gluc lowering @ 4 H; for change in vivo at 30 mg/kg: 4 h post 30 mg/kg oral dose; for change in vivo at 25 mg/kg: 4 h post 25 mg/kg oral dose
Protocol: Glucokinase Activator in vivo Screen Protocol in Lean and Diet Induced Obese Mice: Lean or Diet-Induced Obese (DIO) C57BL/6J mice were orally dosed via gavage with Glucokinase (GK) activator following a two hour fasting period. Blood glucose determinations were made at various (e.g. 0, 1, 2, 4 and 8 h post-oral gavage) times during the study.
C57Bl/6J mice were obtained from Jackson Laboratory (Bar Harbor, Me.) and were maintained in a light-dark cycle with lights on from 0600-1800 hr. For studies in lean mice, the mice were received at age ten weeks and given ad libitum access to control diet (LabDiet 5001 chow, PMI Nutrition, Brentwood, Mo.), and were at least age 11 weeks at the time of study. For studies in the DIO model, the mice were received at age five weeks and given ad libitum access to Bio-Serv F3282 High Fat Diet (Frenchtown, N.J.), and were at least age 16 weeks at the time of study. The experiments were conducted during the light phase of the light-dark cycle. Mice (n=6) are weighed and fasted for a two hour period prior to oral treatment. GK activators are formulated in Gelucire vehicle (Ethanol:Gelucire44/14:PEG400q.s. 4:66:30 v/w/v. For studies in lean mice, the mice were dosed orally with 5.0 μL per gram of body weight (i.e. 5 ml/kg×10.0 mg/ml formulation to equal a 50 mg/kg dose). For studies in DIO mice, the mice were dosed orally with 5.0 μL per gram of body weight (i.e. 5.0 ml/kg×5 mg/ml formulation to equal a 25 mg/kg dose). Immediately prior to dosing, a pre-dose (time zero) blood glucose reading was acquired by snipping off a small portion of the animal's tail and collecting 15 μL blood into a heparinized capillary tube for analysis. Following GK activator administration, additional blood glucose readings were taken at various time points post dose from the same tail wound. Results were interpreted by comparing the mean blood glucose values of vehicle treated mice with GK activator treated mice over the study period.
The Table below provides data for % glucose lowering of a representative number of compounds of the present invention vs control at 4 h post 25 or 30 mg/kg dose in C57B6 mice: […]

SMILES	SC1.5 (concentration of activator that produced a 50% increase in the activity of GK) [1] [µM]	change in vivo at 30 mg/kg (C57B6 mice) [%]	change in vivo at 25 mg/kg (C57B6 mice) [%]
COc1cccc(OC2=CC(=O)N([C@@H](CC(C)C)C(=O)Nc3ccn(CC(C)(C)O)n3)C2)c1Cl [Example 48, (S)-2-[4-(2-Chloro-3-methoxy-phenoxy)-2-oxo-2,5-dihydro-pyrrol-1-yl]-4-methyl-pentanoic acid [1-(2-hydroxy-2-methyl-propyl)-1H-pyrazol-3-yl]-amide]	0.078	-57.4	
COc1cccc(OC2=CC(=O)N([C@@H](CC(C)C)C(=O)Nc3ccn(C[C@@H](O)CO)n3)C2)c1Cl [Example 49]	0.079	-38.3	
CC(C)C[C@@H](C(=O)Nc1ccn(CC(C)(C)O)n1)N1CC(Oc2cccc(Cl)c2Cl)=CC1=O.Cl [Example 77, (S)-2-[4-(2,3-Dichloro-phenoxy)-2-oxo-2,5-dihydro-pyrrol-1-yl]-4-methyl-pentanoic acid [1-(2-hydroxy-2-methyl-propyl)-1H-pyrazol-3-yl]-amide Hydrochloride]	0.162	-39.2	
CC(C)C[C@@H](C(=O)Nc1ccn(CC(C)(C)O)n1)N1CC(Oc2ccccc2Cl)=CC1=O [Example 64, (S)-2-[4-(2-Chloro-phenoxy)-2-oxo-2,5-dihydro-pyrrol-1-yl]-4-methyl-pentanoic acid [1-(2-hydroxy-2-methyl-propyl)-1H-pyrazol-3-yl]-amide]	0.125	-58	
COC(C)(C)Cn1ccc(NC(=O)[C@H](CC2CCCC2)N2CC(OC3CCCC3)=CC2=O)n1 [Example 21, (S)-3-Cyclopentyl-N-[1-(2-methoxy-2-methyl-propyl)-1H-pyrazol-3-yl]-2-(4-cyclopentyloxy-2-oxo-2,5-dihydro-pyrrol-1-yl)-propionamide]	0.545		-26.5
COc1ccccc1OC1=CC(=O)N([C@@H](CC2CCCC2)C(=O)Nc2nccs2)C1 [Example 26, (S)-3-Cyclopentyl-2-[4-(2-methoxy-phenoxy)-2-oxo-2,5-dihydro-pyrrol-1-yl]-N-thiazol-2-yl-propionamide]	0.031		-36.9
CC(C)(O)Cn1ccc(NC(=O)[C@H](CC2CCCC2)N2CC(OC3CCC3)=CC2=O)n1 [Example 19, (S)-3-Cyclopentyl-N-[1-(2-hydroxy-2-methyl-propyl)-1H-pyrazol-3-yl]-2-(4-cyclobutoxy-2-oxo-2,5-dihydro-pyrrol-1-yl)-propionamide]	1.991		-29.5

Further lines, with some results ahead:

SC1.5 (concentration of activator that produced a 50% increase in the activity of GK) [1] [µM]	SMILES	change in vivo at 30 mg/kg (C57B6 mice) [%]	change in vivo at 25 mg/kg (C57B6 mice) [%]
0.029	COc1ccccc1OC1=CC(=O)N([C@@H](CC2CCCC2)C(=O)Nc2ccn(CC(C)(C)O)n2)C1 [Example 27, (S)-3-Cyclopentyl-N-[1-(2-hydroxy-2-methyl-propyl)-1H-pyrazol-3-yl]-2-[4-(2-methoxy-phenoxy)-2-oxo-2,5-dihydro-pyrrol-1-yl]-propionamide]	-52.2	
0.03	O=C(Nc1ccn(C[C@@H](O)CO)n1)[C@H](CC1CCCC1)N1CC(Oc2c(F)cccc2F)=CC1=O [Example 88, (S)-3-Cyclopentyl-2-[4-(2,6-difluoro-phenoxy)-2-oxo-2,5-dihydro-pyrrol-1-yl]-N-[1-((R)-2,3-dihydroxy-propyl)-1H-pyrazol-3-yl]-propionamide]	-49.3	
0.03	COc1cccc(OC2=CC(=O)N([C@@H](CC3CCOCC3)C(=O)Nc3ccn(CC(C)(C)O)n3)C2)c1Cl [Example 51, (S)-2-[4-(2-Chloro-3-methoxy-phenoxy)-2-oxo-2,5-dihydro-pyrrol-1-yl]-N-[1-(2-hydroxy-2-methyl-propyl)-1H-pyrazol-3-yl]-3-(tetrahydro-pyran-4-yl)-propionamide]	-53.9	
0.025	CC(C)(O)Cn1ccc(NC(=O)[C@H](CC2CCCCC2)N2CC(Oc3ccccc3C(F)(F)F)=CC2=O)n1 [Example 32, (S)-3-Cyclohexyl-N-[1-(2-hydroxy-2-methyl-propyl)-1H-pyrazol-3-yl]-2-[2-oxo-4-(2-trifluoromethyl-phenoxy)-2,5-dihydro-pyrrol-1-yl]-propionamide]		-37.5
0.021	CC(C)(O)Cn1ccc(NC(=O)[C@H](CC2CCCC2)N2CC(Oc3c(F)cccc3F)=CC2=O)n1 [Example 86, (S)-3-Cyclopentyl-2-[4-(2,6-difluoro-phenoxy)-2-oxo-2,5-dihydro-pyrrol-1-yl]-N-[1-(2-hydroxy-2-methyl-propyl)-1H-pyrazol-3-yl]-propionamide]	-57.4	
0.013	COc1ccccc1OC1=CC(=O)N([C@@H](CC2CCCCC2)C(=O)Nc2ccn(CC(C)(C)O)n2)C1 [Example 28, (S)-3-Cyclohexyl-N-[1-(2-hydroxy-2-methyl-propyl)-1H-pyrazol-3-yl]-2-[4-(2-methoxy-phenoxy)-2-oxo-2,5-dihydro-pyrrol-1-yl]-propionamide]		-45.4
0.058	CC(C)(O)Cn1ccc(NC(=O)[C@H](CC2CCOCC2)N2CC(Oc3c(F)cccc3F)=CC2=O)n1 [Example 43, (S)-2-[4-(2,6-Difluoro-phenoxy)-2-oxo-2,5-dihydro-pyrrol-1-yl]-N-[1-(2-hydroxy-2-methylpropyl)-1H-pyrazol-3-yl]-3-(tetrahydro-pyran-4-yl)-propionamide]	-38.1	
3.982	CC(C)(O)Cn1ccc(NC(=O)[C@H](CC2CCCC2)N2CC(OC3CCOCC3)=CC2=O)n1 [Example 18, (S)-3-Cyclopentyl-N-[1-(2-hydroxy-2-methyl-propyl)-1H-pyrazol-3-yl]-2-[2-oxo-4-(tetrahydro-pyran-4-yloxy)-2,5-dihydro-pyrrol-1-yl]-propionamide]		-10
0.649	CC(C)(O)Cn1ccc(NC(=O)[C@H](CC2CCCC2)N2CC(OC3CCCC3)=CC2=O)n1 [Example 16, (S)-3-Cyclopentyl-N-[1-(2-hydroxy-2-methyl-propyl)-1H-pyrazol-3-yl]-2-(4-cyclopentyloxy-2-oxo-2,5-dihydro-pyrrol-1-yl)-propionamide]		-36
0.257	CC(C)C[C@@H](C(=O)Nc1ccn(C[C@@H](O)CO)n1)N1CC(Oc2c(F)cccc2F)=CC1=O [Example 47, (S)-2-[4-(2,6-difluoro-phenoxy)-2-oxo-2,5-dihydro-pyrrol-1-yl]-4-methyl-pentanoic acid [1-((R)-2,3-dihydroxy-propyl)-1H-pyrazol-3-yl]-amide]	-33.2	
0.348	COc1ccccc1OC1=CC(=O)N([C@@H](CC2CCCO2)C(=O)Nc2ccn(CC(C)(C)O)n2)C1 (stereo partly drawn) [Example 31, (S)-N-[1-(2-hydroxy-2-methyl-propyl)-1H-pyrazol-3-yl]-2-[4-(2-methoxy-phenoxy)-2-oxo-2,5-dihydro-pyrrol-1-yl]-3-(tetrahydro-furan-2-yl)-propionamide]		-31.6
